Experimental data taken from the NIST ThermoML archive (doi:10.1016/j.tca.2019.02.007).
Numbers after ± are expanded uncertainties.

Tests used:
[1] = for Normal melting temperature: DTA
[2] = Molar enthalpy of transition or fusion; conditions: DSC

Row | Normal melting temperature ([1]; Crystal 1) | Triple point temperature ([1]; Crystal 2, DSC) | Molar enthalpy of transition or fusion ([2]; Crystal 1) | Molar enthalpy of transition or fusion ([2]; Crystal 2) | SMILES | Normal melting temperature ([1]; Crystal) | Molar enthalpy of transition or fusion ([2]; Crystal)
1 | – | – | – | – | O=C(O)c1ccccc1 [benzoic acid] | 122.5 ± 0.5 °C | 4.33 ± 0.131 kcal/mol
2 | – | – | – | – | CC(=O)Oc1ccccc1C(=O)O [2-acetoxybenzoic acid] | 139.2 ± 1.5 °C | 8.08 ± 0.574 kcal/mol
3 | 235.2 ± 1.3 °C | 420.3 ± 1.1 K | 5 ± 0.526 kcal/mol | 0.954 ± 0.0741 kcal/mol | Cn1c(=O)c2c(ncn2C)n(C)c1=O [caffeine] | – | –
